Tested on: TF-1 cells
Assay: Proliferation assay with TF-1 cells by MTT
Type: cell-based
Conditions: MTT-assay data, dose-response fitted with GraphPad
Procedure: TF-1 Cells in logarithmic growth phase (˜2×10^5−1×10^6 cells/ml; RPMI medium; 20% fetal calf serum; supplemented with Penicillin, streptomycin, L-Glutamine; 0.5 ng/ml Interleukin 3) are washed (centrifuge 5 min. 1500 rpm and resuspend in RPMI complete without IL3 at 500,000 cells/ml) and pre-cultured before start of the assay for 24 h without IL-3. At the next day the cells are seeded in 24- or 96-well plates usually using at least 6 concentrations and 4 wells per concentration containing at least 10,000 cells/well per agent to be tested. Each experiment includes controls comprising recombinant EPO as a positive control agent and wells without addition of cytokine as negative control agent. Peptides and EPO-controls are prediluted in medium to the desired concentrations and added to the cells, starting a culture period of 3 days under standard culture conditions (37° C., 5% carbon dioxide in the gas phase, atmosphere saturated with water). […]
At day 4, prior to start of the analysis, a dilution series of a known number of TF-1 cells is prepared in a number of wells (0/2500/5000/10000/20000/50000 cells/well in 100 μl medium). These wells are treated in the same way as the test wells and later provide a calibration curve from which cell numbers can be determined. […] 25 μl of 10% sodium dodecylsulfate in water are added to each well prior to measurement E492 in an ELISA Reader.

GGTYSCHFGGLTWVCKPQGG [SEQ. ID NO. 12] was tested, and the EC50 values was “no activity detectable”.

Source: patent US7589063B2, “Molecules which promote hematopoiesis” (Aplagen GmbH, priority 2004, dated 2009)
